Assays:
[1] = Largest Soluble Hydrocarbon (LSH) test; assay type: physicochemical; settings: compound:hydrocarbon about 1:1 to 1:2 by weight
Protocol: Largest Soluble Hydrocarbon (LSH): The LSH of each hydrofluoroolefin compound was determined by mixing the compound with hydrocarbons of varying molecular weight (CnH2n+2, where n=9 to 24) in a hydrofluoroolefin:hydrocarbon ratio of about 1:1 to 1:2 by weight at room temperature (25° C.) and at 50° C. […] A larger value of n is interpreted herein to indicate a greater ability of the hydrofluoroolefin to clean hydrocarbons.
The results presented in Table 2 indicate that the hydrofluoroolefins of the present invention are highly suitable fluids for cleaning applications.

[2] = Atmospheric lifetime from rate of reaction with hydroxyl radicals; assay type: physicochemical; settings: gas phase, relative to reference compounds such as chloromethane and ethane, FTIR
Protocol: Atmospheric lifetime: The atmospheric lifetime of Example 1 was determined from the rate of reaction with hydroxyl radicals. The pseudo-first order rate for the reaction of the gaseous hydrobromofluoroolefin with hydroxyl radical was measured in a series of experiments relative to reference compounds such as chloromethane and ethane. The measurements were performed in a 5.7 L, heated FTIR gas cell equipped with a polished semiconductor-grade quartz window. An Oriel Instruments UV Lamp, Model 66921 equipped with a 480 W mercury-xenon bulb was used to generate hydroxyl radicals by photolyzing ozone in the presence of water vapor. The concentrations of the hydrobromofluoroolefin and the reference compound were measured as a function of reaction time using an I-Series FTIR from Midac Corporation, Westfield, Mass., US. The atmospheric lifetime was calculated from the reaction rates for the hydrobromofluoroolefin relative to the reference compounds and the reported lifetime of the reference compounds as shown below:
[formula] where τx is the atmospheric lifetime of hydrobromofluoroolefin, τr is the atmospheric lifetime of the reference compound, and kx and kr are the rate constants for the reaction of hydroxyl radical with hydrobromofluoroolefin and the reference compound, respectively. Sample Preparation

[3] = 25° C., longest hydrocarbon compatible without haze
[4] = 50° C., largest hydrocarbon used C-23

Compound	LSH (n in CnH2n+2) [1, 3]	LSH (n in CnH2n+2) [1, 4]	atmospheric lifetime [2] [years]
COC(=C(Cl)C(F)(F)F)C(F)(F)F [Example 1, 2-Chloro-1,1,1,4,4,4-hexafluoro-3-methoxybut-2-ene]	19	>23	0.04
COC1=C(Cl)C(F)(F)C(F)(F)C1(F)F [Example 4, 1-Chloro-3,3,4,4,5,5-hexafluoro-2-methoxycyclopent-1-ene]	19	>23	
